Assay results as given in Sander's compilation of Henry's law constants (doi:10.1016/j.watres.2017.04.074).

assay: Henry solubility constant Hcp at 298.15 K (mol/(m3 Pa)); details: reference: Chao et al. (2017)

Point of comparison: Nc1cccc(Cl)c1 [1-amino-3-chlorobenzene], “Henry solubility constant Hcp” value 4.7. Against it:
- COP(=O)(OC)C(O)C(Cl)(Cl)Cl (stereo unspecified) — higher, 55
- Clc1ccc(C(c2ccc(Cl)cc2)C(Cl)Cl)cc1 [1,1-dichloro-2,2-bis-(4-chlorophenyl)-ethane] — lower, 0.76
- Nc1ccccc1Cl [1-amino-2-chlorobenzene] — lower, 0.78
- Cc1ccccc1O [1-hydroxy-2-methylbenzene] — higher, 6.5
- O=[N+]([O-])c1cccc2ccccc12 [1-nitronaphthalene] — lower, 4.6
- O=[N+]([O-])c1ccc(O)c([N+](=O)[O-])c1 [2,4-dinitrophenol] — higher, 970
- CC(C)CO [2-methyl-1-propanol] — lower, 1.2
- Cc1ccccc1N [2-methylbenzenamine] — lower, 3
- O=[N+]([O-])c1ccccc1O [2-nitrophenol] — higher, 9.9
- O=[N+]([O-])c1cccc(Cl)c1 [3-chloronitrobenzene] — lower, 1.4
- Cc1cccc(N)c1 [3-methylbenzenamine] — lower, 3.2
- CC1CCCC(O)C1 (stereo unspecified) [3-methylcyclohexanol] — lower, 2.9
- Cc1cccc([N+](=O)[O-])c1 [3-nitrotoluene] — lower, 1.3
- O=[N+]([O-])c1ccc(Cl)cc1 [4-chloronitrobenzene] — lower, 1.4
- O=[N+]([O-])c1ccc(O)cc1 [4-nitrophenol] — higher, 14
- OCc1ccccc1 [(hydroxymethyl)-benzene] — higher, 17
- ClC1=C(Cl)[C@]2(Cl)[C@H]3[C@H]([C@@H]4C=C[C@H]3C4)[C@@]1(Cl)C2(Cl)Cl [aldrin] — lower, 0.26
- CCNc1nc(NC(C)C)nc(SC)n1 [ametryn] — higher, 21
- Nc1ccccc1 [aminobenzene] — lower, 4.4
- CNC(=O)Oc1cccc2c1OC(C)(C)C2 [carbofuran] — higher, 24
- ClC1=C(Cl)[C@]2(Cl)[C@@H]3[C@@H]4C[C@@H]([C@H]5O[C@@H]45)[C@@H]3[C@@]1(Cl)C2(Cl)Cl [dieldrin] — lower, 0.65
- COC(=O)c1ccccc1C(=O)OC [dimethyl phthalate] — higher, 23
- CN(C)C(=O)Nc1ccc(Cl)c(Cl)c1 [diuron] — higher, 35
- ClC1=C(Cl)[C@]2(Cl)[C@@H]3[C@H]4C[C@H]([C@@H]5O[C@H]45)[C@@H]3[C@@]1(Cl)C2(Cl)Cl [endrin] — lower, 1.5
- ClC1=C(Cl)C2(Cl)C3C4OC4C(Cl)C3C1(Cl)C2(Cl)Cl (stereo unspecified) [heptachlorepoxide] — lower, 0.96
- CCOC(=O)CC(SP(=S)(OC)OC)C(=O)OCC (stereo unspecified) [malathion] — higher, 15
- CNC(=O)ON=C(C)SC [methomyl] — higher, 200
- COP(=S)(OC)Oc1ccc([N+](=O)[O-])cc1 [methylparathion] — higher, 17
- O=[N+]([O-])c1ccccc1 [nitrobenzene] — lower, 0.67
- ClC1C(Cl)C(Cl)C(Cl)C(Cl)C1Cl (stereo unspecified) [γ-1,2,3,4,5,6-hexachlorocyclohexane] — lower, 3.1
